Assay [1] concerns R5 and dual-tropic (R5/X4) HIV-1 strains. Particulars: monocyte-derived macrophages (MDMs), microglia, primary CD4(+) T cells; cited from earlier work.
Another assay addresses CD4 receptor (Homo sapiens, UniProt P01730). Particulars: in vitro; cited from earlier work.
For assay [2] the following is noted: in vitro; cited from earlier work.
Assay [3] has as its system rabbit anti peptide T antiserum. The following applies: compared with the other fractions of the same adduct, FIG. 14.
Method: HPLC fractions of succinic acid-(Glu)n conjugated to peptide T were analyzed by ELISA (i.e., enzyme linked immunosorbent assay). HPLC fractions of conjugated peptide T were diluted (1:10) in coating buffer [1.59 g sodium carbonate (Na2CO3), 2.93 g sodium bicarbonate (NaHCO3) Dissolve in 900 ml H2O, adjust pH to 9.6 with HCl and make up to 1 L]. Control net peptide T was dissolved in coating buffer with a concentration of 5 μg/ml. 100 μl of each of two peptide T preparations was added to each well of a 96-well microtiter plate (Nunc). The plate was covered with a plate sealer and incubated at 4° C. over night. Following 3 washes with PBS-Tween [phosphate buffer saline: 8.0 g sodium chloride (NaCl), 0.2 g monobasic potassium phosphate (KH2PO4), 1.15 g dibasic sodium phosphate (Na2HPO4), 0.2 g potassium chloride (KCl), Dissolve in 900 ml H2O, adjust pH to 7.4 with NaOH or HCl and make up to 1 L, PBS+0.5 ml Tween 20 per liter]. 100 μl of diluted rabbit anti peptide T antiserum (1:250, in assay diluent, 0.1% BSA and 0.1% sodium azide (NaN3) in PBS) was added to each well. The plate was sealed and incubated for 1 hour at room temperature. Following 5 washes, each well was added with 100 μl of diluted goat anti rabbit IgG alkaline phosphatase conjugate (KPL, 1:1000 dilution in assay diluent). The plate was sealed and incubated for 30 min. […] Optical density (OD) was then read at 405 nm.
For a further assay, the system named is Balb/c mice. The following applies: i.p. 0.5 mg per immunization, day 0, 8 and 21, Freund's adjuvant, antiserum 1:100, FIG. 15.

Like-named read-outs stand apart in the source and are kept apart here.

Method for Balb/c mice: Balb/c mice were immunized intraperitoneally with succinic acid-(glu)n-Peptide T at 0.5 mg per immunization and per animal. The antigen complex was administered with complete Freund's adjuvant (first injection) and with incomplete Freund's adjuvant for booster injections. Mice were immunized 3 times at day 0, day 8 and day 21. Mice were bled via tail vein and 15 μl of blood collected by a capillary tube was transferred into 135 μl PBS in a 12×75 tissue culture tube. Diluted mouse sera were collected after centrifugation for 10 min.
A polystyrene 96-well plate (Nunc) was coated with free peptide T at 10 μg/ml in coating (pH 9.6) overnight at 4° C. The plate was washed 3 times with wash buffer. Afterwards, 100 μl of diluted (1:100 in assay diluent) mouse antiserum from each mouse was then added to each well (each serum sample was assayed in duplicate) and incubated for 2 hours at room temperature. The plates were then washed 5 times with wash buffer. Goat anti-mouse IgG conjugated to alkaline phosphate (KPL) was diluted 1:1000 in PBS with 1% bovine serum albumin, added to the wells, and incubated for 30 min at room temperature followed by six washes with wash buffer. Substrate solution (p-Nitrophenyl phosphate, 2 mg/ml in substrate buffer) was then added. Absorbance was then measured using a microplate reader at 405 nm.

As for “D-Ala-Ser-Thr-Thr-Thr-Asn-Tyr-Thr-NH2 [Peptide T]”, the “replication of HIV-1 strains” value in assay [1] is “inhibits replication”. Besides, at CD4 receptor, the “binding of isolated gp120 and HIV-1 to the CD4 receptor” value is on record as “inhibition of the binding”. For the same substance, the chemotactic activity entry in assay [2] was “chemotactic activity”.
For “Succinic Acid-(Glu)2-(Glu)4-(Peptide T)8 [Shell 2]”, the “immunoreactivity (optical density at 405 nm)” value in assay [3] (HPLC Fraction 2 (highest retention time)) is recorded as “highest immunoreactivity”. For the same substance, in the assay on Balb/c mice, the “immune response (anti-peptide T antibodies, ELISA OD at 405 nm)” value is given as “some mice show greater immune response”.
In the case of “Succinic Acid-(Glu)2-(Glu)4-(Glu)8-(Peptide T)16 [Shell 3]”, in assay [3] (HPLC Fraction 3 (highest retention time)), the “immunoreactivity (optical density at 405 nm)” value is “highest immunoreactivity”. Besides, the “immune response (anti-peptide T antibodies, ELISA OD at 405 nm)” value with Balb/c mice is listed as “some mice show greater immune response”.

Values taken from patent publication US7314956B2, “Multifunctional carrier for the delivery of a pharmacological agent or genetic material into a cell” (Vaxim, Inc., priority 2001, dated 2008).
